Source: ChEMBL document CHEMBL5325448, “Design, synthesis and biological evaluation of phosphoroxy quinazoline derivatives as potential EGFRT790M/C797S inhibitors” (Bioorg Med Chem, 2023)

Assays:
[1] = biological target: Epidermal growth factor receptor (Homo sapiens, UniProt P00533, C797S/L858R/T790M); test: Inhibition of EGFR L858R/T790M/C797S triple mutant (unknown origin) using TK as substrate incubated for 120 mins in presence of ATP by HTRF assay
[2] = biological target: Epidermal growth factor receptor (Homo sapiens, UniProt P00533, C797S/EX19DEL/T790M); test: Inhibition of EGFR Del19/T790M/C797S triple mutant (unknown origin) using TK as substrate incubated for 120 mins in presence of ATP by HTRF assay
[3] = Cytotoxicity against mouse Ba/F3 EGFR-Del19/T790M/C797S cells assessed as cell growth inhibition measured after 72 hrs by CellTiter-Glo luminescent assay; format: functional, cell-based
[4] = biological target: Epidermal growth factor receptor (Homo sapiens, UniProt P00533); test: Inhibition of wild type EGFR (unknown origin) using TK as substrate incubated for 120 mins in presence of ATP by HTRF assay
A-431 = test: Cytotoxicity against human A-431 cells assessed as cell growth inhibition incubated for 72 hrs by CellTiter-Glo luminescent assay; format: functional, cell-based; conditions: A-431, 72 h
[5] = Cmax in BALB/c mouse at 5 mg/kg, po measured upto 24 hrs by LC-MS/MS analysis; format: ADME, organism-based; set-up: dose 5 mg/kg, time < 24 hrs, route po; conditions: in vivo
[6] = AUC (0 to t) in BALB/c mouse at 5 mg/kg, po measured upto 24 hrs by LC-MS/MS analysis; format: ADME, organism-based; set-up: time < 24 hrs, dose 5 mg/kg, route po; conditions: in vivo
[7] = AUC (0 to infinity) in BALB/c mouse at 5 mg/kg, po measured upto 24 hrs by LC/MS-MS analysis; format: ADME, organism-based; set-up: time < 24 hrs, dose 5 mg/kg, route po; conditions: in vivo
[8] = Half life in BALB/c mouse at 5 mg/kg, po measured upto 24 hrs by LC/MS-MS analysis; format: ADME, organism-based; conditions: in vivo
[9] = MRT in BALB/c mouse at 5 mg/kg, po measured upto 24 hrs by LC-MS/MS analysis; format: ADME, organism-based; conditions: in vivo
[10] = Antitumor activity against mouse Ba/F3 EGFR-Del19/T790M/C797S cells xenografted in BALB/c nude mouse assessed as tumor growth inhibition at 30 mg/kg, po administered once a day for 14 consecutive days and measured twice a week relative to control; format: functional; conditions: 336 h, time 14 day, read-out: TGI
PC-9 [11] = test: Antitumor activity against human PC-9 cells harboring EGFR Del19/T790M/C797S triple mutant xenografted in NOD/SCID mouse assessed as tumor growth inhibition at 15 mg/kg, po administered once a day for 21 consecutive days and measured twice a week relative to control; format: functional; conditions: PC-9, 504 h, time 21 day, read-out: TGI
PC-9 [12] = test: Antitumor activity against human PC-9 cells harboring EGFR Del19/T790M/C797S triple mutant xenografted in NOD/SCID mouse assessed as tumor growth inhibition at 30 mg/kg, po administered once a day for 21 consecutive days and measured twice a week relative to control; format: functional; conditions: PC-9, 504 h, time 21 day, read-out: TGI
[13] = Antitumor activity against mouse Ba/F3 EGFR-Del19/T790M/C797S cells xenografted in BALB/c nude mouse assessed as tumor growth inhibition at 15 mg/kg, po administered once a day for 14 consecutive days and measured twice a week relative to control; format: functional; conditions: 336 h, time 14 day, read-out: TGI

Chain of Epidermal growth factor receptor (Homo sapiens, UniProt P00533, C797S/L858R/T790M) (P00533 25-1210 T790M/C797S/L858R limits assumed): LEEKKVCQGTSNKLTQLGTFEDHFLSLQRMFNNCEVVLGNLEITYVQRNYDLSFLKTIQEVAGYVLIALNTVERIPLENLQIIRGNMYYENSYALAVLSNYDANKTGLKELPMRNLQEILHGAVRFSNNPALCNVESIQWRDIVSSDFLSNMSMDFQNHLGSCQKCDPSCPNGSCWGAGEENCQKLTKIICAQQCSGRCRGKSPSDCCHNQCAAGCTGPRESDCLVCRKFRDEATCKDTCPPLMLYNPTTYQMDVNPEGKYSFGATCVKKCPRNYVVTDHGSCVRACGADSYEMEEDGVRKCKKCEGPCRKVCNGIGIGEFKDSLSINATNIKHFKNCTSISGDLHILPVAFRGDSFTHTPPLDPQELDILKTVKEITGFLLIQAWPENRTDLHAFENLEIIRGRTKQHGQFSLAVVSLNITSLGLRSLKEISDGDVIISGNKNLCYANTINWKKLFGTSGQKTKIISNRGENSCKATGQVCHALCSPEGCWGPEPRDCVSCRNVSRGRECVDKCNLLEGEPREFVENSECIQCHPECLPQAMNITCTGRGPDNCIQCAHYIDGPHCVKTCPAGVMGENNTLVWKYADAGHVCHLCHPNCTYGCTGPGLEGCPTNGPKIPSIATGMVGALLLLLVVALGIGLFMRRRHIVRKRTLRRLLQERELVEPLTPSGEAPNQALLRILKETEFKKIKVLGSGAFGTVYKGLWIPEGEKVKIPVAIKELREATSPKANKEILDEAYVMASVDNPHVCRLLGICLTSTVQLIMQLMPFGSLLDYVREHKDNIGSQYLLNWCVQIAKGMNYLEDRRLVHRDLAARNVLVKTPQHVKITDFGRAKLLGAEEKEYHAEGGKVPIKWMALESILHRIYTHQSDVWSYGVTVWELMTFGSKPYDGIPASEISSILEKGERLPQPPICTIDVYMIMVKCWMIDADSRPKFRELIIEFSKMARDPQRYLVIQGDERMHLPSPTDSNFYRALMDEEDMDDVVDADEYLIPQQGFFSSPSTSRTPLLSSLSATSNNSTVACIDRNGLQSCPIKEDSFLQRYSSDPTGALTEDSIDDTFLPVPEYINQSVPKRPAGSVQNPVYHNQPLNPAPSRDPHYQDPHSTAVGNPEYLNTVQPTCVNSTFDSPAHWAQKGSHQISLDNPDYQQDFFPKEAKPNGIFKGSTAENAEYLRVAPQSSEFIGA
Chain of Epidermal growth factor receptor (Homo sapiens, UniProt P00533) (P00533 whole entry): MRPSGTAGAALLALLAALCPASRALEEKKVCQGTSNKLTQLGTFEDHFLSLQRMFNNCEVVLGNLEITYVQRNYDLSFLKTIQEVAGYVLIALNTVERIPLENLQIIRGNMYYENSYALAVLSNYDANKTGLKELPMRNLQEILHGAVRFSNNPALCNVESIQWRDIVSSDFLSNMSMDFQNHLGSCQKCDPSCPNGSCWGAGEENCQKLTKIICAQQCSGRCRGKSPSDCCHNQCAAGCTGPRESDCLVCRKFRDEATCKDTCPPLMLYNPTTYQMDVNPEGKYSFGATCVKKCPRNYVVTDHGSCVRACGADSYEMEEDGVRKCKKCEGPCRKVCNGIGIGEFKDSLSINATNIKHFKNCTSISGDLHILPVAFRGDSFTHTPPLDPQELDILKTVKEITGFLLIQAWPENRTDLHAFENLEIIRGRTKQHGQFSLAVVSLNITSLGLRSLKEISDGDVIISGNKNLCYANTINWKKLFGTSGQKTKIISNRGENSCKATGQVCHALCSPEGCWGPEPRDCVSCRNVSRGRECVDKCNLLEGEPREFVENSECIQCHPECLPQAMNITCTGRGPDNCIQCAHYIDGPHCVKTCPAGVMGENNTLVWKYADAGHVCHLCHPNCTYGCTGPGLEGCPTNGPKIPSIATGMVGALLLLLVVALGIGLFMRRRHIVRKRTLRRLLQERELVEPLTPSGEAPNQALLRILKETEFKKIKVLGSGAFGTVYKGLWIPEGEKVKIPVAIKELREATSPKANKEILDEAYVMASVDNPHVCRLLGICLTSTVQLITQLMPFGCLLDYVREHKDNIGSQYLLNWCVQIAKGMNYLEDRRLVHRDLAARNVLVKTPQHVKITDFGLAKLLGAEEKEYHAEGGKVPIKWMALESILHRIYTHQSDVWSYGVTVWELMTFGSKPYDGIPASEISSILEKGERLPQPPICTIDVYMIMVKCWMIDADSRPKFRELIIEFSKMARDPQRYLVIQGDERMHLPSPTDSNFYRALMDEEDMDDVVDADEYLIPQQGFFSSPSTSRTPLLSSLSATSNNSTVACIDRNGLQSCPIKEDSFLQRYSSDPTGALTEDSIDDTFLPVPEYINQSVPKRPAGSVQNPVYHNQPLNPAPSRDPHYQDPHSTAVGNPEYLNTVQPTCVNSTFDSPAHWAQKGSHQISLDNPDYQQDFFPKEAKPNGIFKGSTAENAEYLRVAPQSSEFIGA
Chain of Epidermal growth factor receptor (Homo sapiens, UniProt P00533, C797S/EX19DEL/T790M) (P00533 whole entry, looked up, stated change not applied): as the sequence (P00533 whole entry) above

Row | SMILES | IC50 [1] | IC50 [2] | IC50 [4] | IC50 [3] | other results
1 | COc1cc(N2CCC(N3CC(N(C)C)C3)CC2)c(C)cc1Nc1ncc(SC)c(Nc2ccc3nccnc3c2P(C)(C)=O)n1 | 0.05 nM | 0.39 nM | – | 19.7 nM | –
2 | COc1cc(N2CCC(N3CC(F)(CO)C3)CC2)c(C)cc1Nc1ncc(Br)c(Nc2ccc3nccnc3c2P(C)(C)=O)n1 | 0.1 nM | 0.13 nM | > 500 nM | 18.7 nM | IC50 (A-431): 808 nM; Cmax [5]: 1730 ng/mL; AUC(0-t) at 24 h [6]: 16900 ng·h/mL; AUC(0-inf) [7]: 17000 ng·h/mL; half-life [8]: 3.7 h; MRT [9]: 6.3 h
3 | COc1cc(N2CCC(N3CC(N(C)C)C3)CC2)c(C)cc1Nc1ncc(Br)c(Nc2ccc3nccnc3c2P(C)(C)=O)n1 | – | 0.06 nM | – | 12.7 nM | Cmax [5]: 1570 ng/mL; AUC(0-t) at 24 h [6]: 15400 ng·h/mL; AUC(0-inf) [7]: 15600 ng·h/mL; inhibition in vivo at 30 mg/kg [10]: 82.6%; half-life [8]: 3.5 h; MRT [9]: 6 h; inhibition in vivo at 15 mg/kg (PC-9 [11]): 21.6%; inhibition in vivo at 30 mg/kg (PC-9 [12]): 46.8%; inhibition in vivo at 15 mg/kg [13]: 48.4%
4 | CCc1cc(Nc2ncc(C(F)(F)F)c(Nc3ccc4nccnc4c3P(C)(C)=O)n2)c(OC)cc1N1CCC(N2CC(N(C)C)C2)CC1 | – | – | – | 54 nM | IC50 (A-431): 547 nM
5 | COc1cc(N2CCC(N3CCN(C)CC3)CC2)ccc1Nc1ncc(Cl)c(Nc2ccccc2P(C)(C)=O)n1 [BRIGATINIB] | – | – | – | 433 nM | Cmax [5]: 927 ng/mL; AUC(0-t) at 24 h [6]: 6490 ng·h/mL; AUC(0-inf) [7]: 6500 ng·h/mL; half-life [8]: 2.8 h
6 | COc1cc(N2CCC(N(C)CCN(C)C)CC2)c(C)cc1Nc1ncc(Br)c(Nc2ccc3nccnc3c2P(C)(C)=O)n1 | 0.15 nM | 0.06 nM | – | 16 nM | IC50 (A-431): 406 nM
7 | CCc1cc(Nc2ncc(Br)c(Nc3ccc4nccnc4c3P(C)(C)=O)n2)c(OC)cc1N1CCC(N2CC(N(C)C)C2)CC1 | – | 0.11 nM | – | 16.3 nM | –
8 | COc1cc(N2CCC(N3CC(C)(CO)C3)CC2)c(C)cc1Nc1ncc(Br)c(Nc2ccc3nccnc3c2P(C)(C)=O)n1 | 0.15 nM | 0.06 nM | – | 17.7 nM | –
9 | COCC1CN(C2CCN(c3cc(OC)c(Nc4ncc(Br)c(Nc5ccc6nccnc6c5P(C)(C)=O)n4)cc3C)CC2)C1 | 0.06 nM | 0.69 nM | – | 15 nM | –
10 | COCC1(C)CN(C2CCN(c3cc(OC)c(Nc4ncc(Br)c(Nc5ccc6nccnc6c5P(C)(C)=O)n4)cc3C)CC2)C1 | 0.81 nM | 0.3 nM | > 500 nM | 22.3 nM | –
11 | CCOC1CN(C2CCN(c3cc(OC)c(Nc4ncc(Br)c(Nc5ccc6nccnc6c5P(C)(C)=O)n4)cc3C)CC2)C1 | – | 0.65 nM | – | 29 nM | –
12 | COc1cc(N2CCC(N3CC[C@@H](N(C)C)C3)CC2)c(C)cc1Nc1ncc(Br)c(Nc2ccc3nccnc3c2P(C)(C)=O)n1 | 0.13 nM | – | – | 9 nM | –
13 | CCc1cc(Nc2ncc(Cl)c(Nc3ccc4nccnc4c3P(C)(C)=O)n2)c(OC)cc1N1CCC(N2CC(N(C)C)C2)CC1 | 0.4 nM | 0.61 nM | > 500 nM | 29.7 nM | –

Further lines, with some results ahead:

Row | IC50 [1] | IC50 [2] | IC50 [4] | SMILES | IC50 [3] | other results
14 | 0.12 nM | 0.07 nM | 500 nM | COc1cc(N2CCC(N3CCN(C(C)=O)CC3)CC2)c(C)cc1Nc1ncc(Br)c(Nc2ccc3nccnc3c2P(C)(C)=O)n1 | 17.7 nM | IC50 (A-431): 578 nM
15 | 0.34 nM | 0.57 nM | 590 nM | COc1cc(N2CCC(N3CC(CO)C3)CC2)c(C)cc1Nc1ncc(Br)c(Nc2ccc3nccnc3c2P(C)(C)=O)n1 | 41 nM | –
16 | 0.15 nM | 0.07 nM | – | COc1cc(N2CCC(N3CC(C(C)(C)O)C3)CC2)c(C)cc1Nc1ncc(Br)c(Nc2ccc3nccnc3c2P(C)(C)=O)n1 | 18 nM | –
17 | 0.12 nM | 0.33 nM | 461 nM | COc1cc(N2CCC(N3CC(CC#N)C3)CC2)c(C)cc1Nc1ncc(Br)c(Nc2ccc3nccnc3c2P(C)(C)=O)n1 | 12.7 nM | Cmax [5]: 1270 ng/mL; AUC(0-t) at 24 h [6]: 11200 ng·h/mL; AUC(0-inf) [7]: 11200 ng·h/mL; half-life [8]: 3.1 h; MRT [9]: 5.12 h
18 | 0.12 nM | – | – | COc1cc(N2CCC(N3C[C@H]4COC[C@H]4C3)CC2)c(C)cc1Nc1ncc(Br)c(Nc2ccc3nccnc3c2P(C)(C)=O)n1 | 11 nM | IC50 (A-431): 425 nM; Cmax [5]: 1360 ng/mL; AUC(0-t) at 24 h [6]: 11200 ng·h/mL; AUC(0-inf) [7]: 11200 ng·h/mL; half-life [8]: 3.3 h; MRT [9]: 5.6 h
19 | 0.12 nM | 0.25 nM | – | COc1cc(N2CCC(N3CC(N(C)C)C3)CC2)c(C)cc1Nc1ncc(Cl)c(Nc2ccc3nccnc3c2P(C)(C)=O)n1 | 16.3 nM | –
